Legend:
[1] = Stability of acetazolamide sulfocarbamate derivative in buffer solution; assay type: physicochemical
physchem [2] = assay type: physicochemical; settings: phosphate buffer
Protocol: (§1) A stock solution was prepared by dissolving 10 mg of 5FU/TRI in 10 ml acetonitrile. This was then added to a series of phosphate buffers at pH 3, 5, 6.4, 7.4 and 8.4 at 37°C to give final concentrations of 100 ug/ml. Care was taken to ensure that these solutions were indeed solutions and not suspensions. Samples were periodically removed and assayed by HPLC as described below. Enzymatic hydrolysis was determine in a similar way using pooled serum from 3 volunteers. The assay procedure used distinguished between TRI and 5FU/TRI. 5FU was assayed under different conditions. HPLC Assays: Samples of buffer containing codrug and steroids were assayed by HPLC using a fully automated Hitachi system with a C-18 reverse phase column (25 cm × 4 mm x 5 µm) and uv detection. The mobile phase was 40% acetonitrile buffered to 4.0 with 0.02% sodium acetate. The flow rate was 1.0 ml/min and detection was at 238 nm. Under these conditions the retention time of the codrug 5FU/TRI was 17 minutes while triamcinolone acetonide eluted at 9 minutes. Quantitation limits were 0.3 and 0.5 ug/ml, respectively. […] For 5FU an Applied Biosystems HPLC system was used with a C-18 column reverse phase column (25 cm x 4 mm x 5 µm) and 0.02% sodium acetate buffer mobile phase (Ph 4.0). The flow rate was 1.0 ml/min and detection was by uv at 266 nm. Under these condition the retention time was 6.5 minutes and the detection limit 0.2 ug/ml.

in vitro = in vitro ADME; settings: human, serum, t½
Protocol: as §1, with “Under these condition the retention time was 6.5 minutes and the detection limit 0.2 ug/ml.” left out
To quantitate 5FU it was necessary to remove acetonitrile before analysis. […]

[3] = In vitro release from 2 mg codrug pellets in phosphate buffer (Example 3); assay type: physicochemical
Protocol: Two mg pellets of the codrug 5FU/TRI were prepared in a 1.5 mm pellet press using a modified Parr Instrument Press. Pellets were then immersed in 5 ml phosphate buffer (Ph 7.4, 37 °C) and 300 µl samples removed each day for 6 days; there immediately replaced was replaced 300 µl of buffer. Samples were assayed by HPLC for 5FU/TRI, triamcinolone acetonide and 5FU. After 6 days buffer was completely replaced, to maintain sink conditions, and sampling continued.

[4] = Vitreous concentrations after intravitreal implantation of codrug pellets (Example 4); assay type: in vivo, New Zealand white rabbits
Protocol: Two mg pellets of the codrug 5FU/TRI were prepared using a 1.5 mm press. These pellets were then fixed onto 6-0 nylon suture using intraocular lens grade silicone. silicone covered the base of the pellets providing a platform for suture attachment. Alternatively a solution of 2% or 5% polylactic acid was used. Pellets attached by both methods were implanted into the vitreous of 8 New Zealand white rabbits through a small incision through the sclera. For each type of device, two animals were killed after 1, 2, 3, and 4 weeks and the vitreous and aqueous obtained from the frozen sphere. Before death animals were examined with a slit lamp. […] Pellets were then implanted into the vitreous of 8 New Zealand White rabbits in a similar manner to that described in 3b except that sclerotomy sites were smaller in this case (2.5 mm). […] HPLC analysis was then performed on tissue samples and explanted devices to determine the concentrations of 5FU, triamcinolone acetonide and intact 5FU/TRI.

[5] = system: extraocular muscle (EOM) surgery in rabbits; experiment: Scar reduction after extraocular muscle surgery with codrug implants (Example 5); assay type: in vivo
Protocol: After the IRM was sewn back into its insertion site, four 2 mg codrug implants were inserted between sclera and muscle in the right eye, while the left was used as a control. Bioerodible codrug implants releasing 5FU and TRI over 6 weeks were prepared. Devices release equimolar amounds of 5FU and TRI. Animals were sacrificed at 1, 2 and 3 weeks and eyes eviscerated. Specimens were prepared and stained with H&E. The scar thickness and cellular infiltrate were determined quantitatively using a Bioscan image analysis program.

[6] = Subconjunctival codrug devices: release from explanted devices, toxicity (Example 6); assay type: in vivo, rabbits; settings: rabbit
Protocol: Codrug devices were prepared as flat discs 2.5 mm in diameter weighing 5 mg. Each device contained approximately 3.7 mg of TRI and 1.3 mg of 5FU and were composed of over 97% active substance. Devices were implanted subconjunctivally in each eye of ten rabbits (figure 2). Toxicity and inflammation were determined by weekly slit lamp examinations and electroretinograms (ERGs). Animals were sacrificed after 3, 7, 10 and 14 days and eyes eviscerated. After freezing at -70°C devices were removed for determination of residual drugs and the complete vitreous and aqueous dissected from the ice ball to determine the concentration of SFU and TRI. Two animals were used for histology and were sacrificed 6 weeks after implantation.

[7] = system: posterior capsular opacification (PCO); experiment: Posterior capsular opacification after cataract extraction and IOL implantation with codrug pellet (Example 7); assay type: in vivo, New Zealand White rabbits
Protocol: Codrug pellets were prepared that gave pseudo zero order release of 5FU and TRI in an equimolar ratio over 6 weeks. […] 1.5 mm pellets containing 1.5 mg of TRI and 0.5 mg 5FU were prepared and fixed to the haptics of IOLs using the bioerodible polybutyl cyanoacrylate. This polymer is soaked into the pellet forming a codrug/cyanoacrylate matrix as it dried (figure 3). 16 New Zealand White rabbits were used in this study, one eye (control) received a polymethyl methacrylate intraocular lens (IOL) (Chiron Intraoptics) while the other received an IOL with codrug. Eyes were examined regularly by slit lamp and PCO scored from 0 to 4+. Retinal function was determined by electroretinogram (ERG) before implantation and before sacrifice. Animals were sacrificed after 4, 8, 12 and 16 weeks; eyes were removed and fixed in formalin. Photographs of posterior capsule were projected onto a grid and the percentage of PCO calculated.

[8] = In vitro release from 1.5 mm codrug implants in phosphate buffer (Example 8); assay type: physicochemical; settings: 1.5 mm implant, phosphate buffer pH 7.4
Protocol: (§2) Bioerodible codrug implants were prepared 1.5 mm in diameter and attached to 6-0 nylon suture. Implants were immersed in 5 ml of phosphate buffer (pH 7.4) and samples periodically removed for HPLC assay to determine the release of both 5FU and TRI. Similar implants were then inserted into the vitreous of 14 New Zealand White rabbits (figure 4). Toxicity was assess by electroretinogram and slit lamp examination in all animals. Histopathologic examination was performed on four animals. Ten animals were used for pharmacokinetics; two animals were sacrificed 1, 2, 3, 4 and 5 weeks after implantation. Eyes were enucleated, devices removed and both vitreous and aqueous obtained. All samples were assayed by HPLC. Five animals received actual devices in one eye and placebo implants in contralateral eyes. These were sacrificed after 3 and 6 weeks for histopathologic examination.

[9] = Intravitreal codrug implants: pharmacokinetics and toxicity (Example 8); assay type: in vivo, New Zealand White rabbits; settings: intravitreal implant
Protocol: as §2

[10] = system: proliferative vitreoretinopathy (PVR); experiment: Intravitreal pellet after vitrectomy, proliferative vitreoretinopathy; assay type: in vivo; settings: pellet implanted intravitreally after vitrectomy; animal studies proceeding
[11] = immersed in pH 7.4 buffer
physchem [12] = settings: buffer

SMILES: CC(=O)Nc1nnc(S(=O)(=O)NC(=O)O[C@@H]2C[C@H](C)CC[C@H]2C(C)C)s1 [product 35]
- stability in buffer solution [1]: appears to stable in buffer solution

SMILES: CC1(C)O[C@@H]2C[C@H]3[C@@H]4CCC5=CC(=O)C=C[C@]5(C)[C@@]4(F)[C@@H](O)C[C@]3(C)[C@]2(C(=O)COC(=O)OCn2cc(F)c(=O)[nH]c2=O)O1 [5FU/TRI]
- half-life (physchem [2]; pH 3): 12200 min
- half-life (physchem [2]; pH 5): 762 min
- half-life (physchem [2]; pH 6.4): 78 min
- half-life (physchem [2]; pH 7.4): 14.1 min
- half-life (physchem [2]; pH 8.4): 9.8 min
- half-life (in vitro; half-life): < 10 min
- half-life (in vitro): 8.8 min
- fraction of triamcinolone acetonide and 5FU released while rates were maintained ([3]; 2 mg pellet, phosphate buffer pH 7.4): over 60%
- Release of 5FU ([3]; 2 mg pellet, phosphate buffer pH 7.4, 37 °C): 0.4 ± 0.06 µg/h
- intact codrug in the receptor medium ([3]; 2 mg pellet, phosphate buffer pH 7.4, 37 °C, HPLC detection limit 0.5 ug/ml): No intact codrug was detected
- mean release rate of triamcinolone acetonide ([3]; 2 mg pellet, phosphate buffer pH 7.4, 37 °C, pseudo zero order): 1.4 ± 0.3 µg/h
- mean ratio of 5FU to triamcinolone acetonide concentration (ug/ml) in the receptor solution ([3]; all time points (equimolar release)): 3.40 +/- 0.15
- intact codrug in the vitreous ([4]; 2 mg pellets implanted in rabbit vitreous): No intact codrug was detected
- intravitreal levels of triamcinolone ([4]; rabbit vitreous, week 5): below the detection limit of the HPLC
- number of inflammatory cells in a defined area of tissue ([5]; 40 µm^2 area, control > 300): < 35
- scar thickness ([5]; drug treated eyes (controls 35 µm)): 7 µm
- decrease in scar thickness compared to controls ([5]; four 2 mg implants between sclera and muscle, rabbit): 80%
- ERGs ([6]; in vivo): normal
- release rate of 5FU and TRI from explanted devices (pseudo zero order) ([6]; in vivo): 9 +/-1 % per day
- toxicity or inflammation around the implantation site ([6]; subconjunctival devices, slit lamp): no evidence of toxicity or inflammation
- tolerability (ERG and histopathologic data) ([7]; codrug pellet on IOL haptic, rabbit capsular bag): well tolerated with no indication of a toxic or inflammatory response
- PCO by slit lamp examination, study versus control eyes ([7]; p< 0.001): statistically significant decrease in PCO
- PCO assessed using a grid ([7]; p< 0.03 by 8 weeks): arrest of opacification
- release of 5FU in buffer [8]: 0.3 µg/h
- release of TRI in buffer [8]: 1.4 µg/h
- Levels of TRI and 5FU in the aqueous ([9]; rabbit): too low to be detected
- tolerability in rabbit eyes ([9]; ERG, slit lamp, histopathology): well tolerated in rabbit eyes with no indication of toxicity or inflammation
- occurrence of PVR [10]: reduce the occurrence of PVR
- release of TRI and 5FU from compressed pellet [11]: slowly releases both TRI and 5FU over an extended period of time (months)
- half-life (physchem [12]; pH 3): > 2880 min
- half-life (physchem [12]; pH 7.4): < 3 min
